These results are taken from US20220160712A1, “METHODS OF TREATING RHEUMATOID ARTHRITIS AND FOR PREDICTING THE RESPONSE TO METHOTREXATE” (CHAN ZUCKERBERG BIOHUB, INC., priority 2020, published 2022).

Assay [1] deals with human gut bacterial isolates. Put plainly: In vitro bacterial growth studies (MIC, growth curves) on a panel of 45 isolates. Type of assay: cell-based. An excerpt:
42/45 of the tested isolates are commonly found in the human gut microbiota, with the exceptions of Bacteroides acidifaciens (found in mice), Delftia acidovorans (found in soil), and Bacillus subtilis 168 (found in soil). Each of these strains was obtained from the Deutsche Sammlung von Mikroorganismen and Zellkulturen (DSMZ) culture collection. A single colony of each isolate was subcultured in Bacto Brain Heart Infusion (BD Biosciences, 37 g/L) supplemented with L-cysteine-HCl (0.05%, w/v), menadione (1 μg/mL), and hemin (5 μg/mL) (referred to hereafter as BHI+) for 48 hours in an anaerobic chamber (Coy Laboratory Products) at 37° C. with an atmosphere composed of 2-3% H2, 20% CO2, and the balance N2. This subculture was diluted down to an OD600 of 0.08-0.1, which was then further diluted 100-fold, and then used to inoculate a microtiter plate with 2-fold serial dilutions of MTX concentrations ranging from 0-900 μg/ml. Plates were incubated at 37° C. with shaking in an Eon Microplate Spectrophotometer (BioTek Instruments, Inc) over a 48 to 72-hour period in the anaerobic chamber. Growth was monitored every 15 minutes at OD600 and corrected for background (no growth control). Data were exported using the Gen5 (v 2.0) software. […] As with any in vitro system, the growth of cells may be dependent on the growth medium used, and for these studies, a rich medium (BHI+) was used.
Growth parameters (carrying capacity, time to mid-exponential and growth rate) were calculated in R using GrowthCurveR (Sprouffske, K., and Wagner, A. (2016), BMC Bioinformatics 17, 1726) (v0.2.1). Curves that could not be fit by the software (i.e., generated a warning/error message) were excluded from further analysis. […] Determination of dose-dependency was done by fitting a linear regression with methotrexate concentration as the independent variable and the estimated growth parameter as the dependent variable using lm from the stats package (v3.5.1). For rescue studies, as above, growth parameters (carrying capacity, time to mid-exponential, growth rate, and area under the curve) were calculated in R using GrowthCurveR (Sprouffske and Wagner, 2016) (v0.2.1). Four isolates were evaluated with varying sensitivity to MTX (B. thetaiotaomicron, B. vulgatus, C. innocuum and C. symbiosum). C. asparagiforme was excluded because rescue of growth would be difficult to identify in this MTX resistant strain (FIG. 2D). Growth curves at 9 concentrations of MTX tested against 7 concentrations of folic acid were measured. Determination of dose-dependency at each tested concentration of MTX was done by fitting a linear regression with folic acid or leucovorin concentration as the independent variable and the estimated growth parameter as the dependent variable using lm from the stats package (v3.5.1). […] A p-value cutoff of p<0.05 was used to identify effects that were dose-dependent based on the linear regression.

In another assay the test system is Clostridium sporogenes. Put plainly: RNA-seq after MTX treatment. Type of assay: cell-based. The conditions noted are these: MTX 100 μg/ml, 30 minutes; padj<0.2, DESeq. How it is done: Genomes were obtained from NCBI's GenBank Assembly database. Culture media was composed of BHI+and allowed to equilibrate in an anaerobic environment prior to use. Briefly, bacteria were cultured in BHI+at 37° C. in an anaerobic chamber. Cultures for each isolate were grown to mid-exponential (achieving an OD600˜0.5), aliquoted into triplicates, treated for 30 minutes with either DMSO or MTX 100 μg/ml, and then removed from the anaerobic chamber. […]
Total RNA was subjected to rRNA depletion using Ribo-Zero Bacterial rRNA Depletion (Illumina, catalog #: MRZB12424), following the manufacturer's protocol. […] For each sample, fastq files are available in NCBI's Sequence Read Archive (SRA), accession number PRJNA656577.
Reads were trimmed using Trimmomatic (v0.32) (Bolger, A. M., et al., (2014), Bioinformatics 30, 2114-2120), and ribosomal reads were removed using SortMeRNA (v2.1) (Kopylova, E., et al., (2012), Bioinformatics 28, 3211-3217). Reads were mapped to reference genomes using Bowtie2 (Langmead, B., and Salzberg, S. L. (2012), Nat Methods 9, 357-359) using the following options: -q, —met file, —end-to-end, —sensitive. […]

Turning to `CN(Cc1cnc2nc(N)nc(N)c2n1)c1ccc(C(=O)N[C@@H](CCC(=O)O)C(=O)O)cc1` [MTX, methotrexate], the “percentage of tested isolates inhibited at the estimated concentration in the proximal GI tract” value in assay [1] (22-220 μM or 10-100 μg/ml MTX, 5-15 of 45 isolates) is 11-33%. In addition, in assay [1] (45 isolates, MTX 1.7-900 μg/ml, 2-2,000 μM, 48 hours, BHI+, anaerobic), the “Minimal inhibitory concentration (MIC)” value is “ranged across the full gradient”. The “number of isolates resistant to the maximum concentration tested” value in assay [1] (45 isolates, maximum 900 μg/ml, 48 hours) worked out at 11. In assay [1] (MICs of isolates spanning 4 major phyla (FIG. 2B)), the “sensitivity of Bacteroidetes relative to the other phyla” value is “tended to be sensitive”. Besides, the “isolates with full growth inhibition or alterations in growth curve parameters” value in assay [1] (MTX concentrations predicted to be found in the human gut, 36/45 isolates) was 80%. Moreover, the “percentage of tested isolates with at least one growth parameter affected in a dose-dependent manner” value in assay [1] (sub-MIC concentrations, subset of strains with growth curves) was 78%. In the assay on Clostridium sporogenes, the “number of differentially expressed genes” value was found to be 21 genes.
